According to patent publication US20200062789A1, “HYDROXAMIC ACID PRODRUG COMPOUND OR SALT THEREOF, LYOPHILIZED FORMULATION, LPXC INHIBITOR, AND ANTIBACTERIAL AGENT” (FUJIFILM Toyama Chemical Co., Ltd., priority 2017, published 2020):

Experiments:
[1] = Solubility test (visual dissolution in physiological saline; saturated solubility); type: physicochemical; settings: saline or isotonic, thermodynamic from solid, 1.2 mg taken, dissolution confirmed visually
Procedure: The compounds of Examples 1 and 2 were taken in an amount of 1.2 mg, physiological saline was added during stirring until dissolution could be confirmed visually, and the solubility was calculated.

[2] = tested on: Pseudomonas aeruginosa (S-2838 strain); experiment: Multidrug-resistant Pseudomonas aeruginosa urinary tract infection model test in mice; type: in vivo; settings: ICR female mice, 25 mg/kg once by tail vein 2 hours after infection, kidney count on the day after infection
Procedure: The mice used were ICR female SPF mice (5 weeks old: 5 mice per group). The inoculum solution was prepared by suspending a clinical isolate of Pseudomonas aeruginosa (S-2838 strain) cultured overnight at 37° C. on a Mueller-Hinton agar plate in sterile saline. The infection was induced by inoculating 0.2 mL (about 10^3 CFU/mouse) of the inoculum solution into the urethra of each mouse. The test compound was dissolved in sterile saline and given once by tail vein administration 2 hours after infection. The count of viable cells in the kidney on the day after infection was recorded and the mean value was calculated.

[3] = Stability in 100 mmol/L tris-hydrochloric acid buffer (pH 7.4); type: physicochemical; settings: compared to Example 1

Row | solubility [1] [mg/mL] | Compound | also measured
1 | > 100 | CNC(=O)[C@@](C)(C(=O)NOCOP(=O)(O)O)N(C)C(=O)c1ccc(C#Cc2ccc([C@H](O)CO)cc2)cc1 [Example 2, (((S)-2-(4-((4-((S)-1,2-dihydroxyethyl)phenyl)ethynyl)-N-methylbenzamide)-2-methyl-3-(methylamino)-3-oxopropanamide)oxy)methyl dihydrogen phosphate] | 
2 |  | CNC(=O)[C@@](C)(C(=O)NO)N(C)C(=O)c1ccc(C#Cc2ccc([C@H](O)COP(=O)(O)O)cc2)cc1 [Comparative Example 1, (S)-2-hydroxy-2-(4-((4-(((S)-1-(hydroxyamino)-2-methyl-3-(methylamino)-1,3-dioxopropan-2-yl)(methyl)carbamoyl)phenyl)ethynyl)phenyl)ethyl phosphate] | decrease of count of viable cells in the kidney compared with control group [2]: < 4 log CFU/kidney
3 |  | CNC(=O)[C@@](C)(C(=O)NOC(=O)CCC(=O)O)N(C)C(=O)c1ccc(C#Cc2ccc([C@H](O)CO)cc2)cc1 [Comparative Example 2, 4-(((S)-2-(4-((4-((S)-1,2-dihydroxyethyl)phenyl)ethynyl)-N-methylbenzamide)-2-methy 1-3-(methylamino)-3-oxopropanamide)oxy)-4-oxobutanoic acid] | stability in buffer (decomposition to compound A) [3]: easily decomposed
4 | > 100 | CNC(=O)[C@@](C)(C(=O)NOP(=O)(O)O)N(C)C(=O)c1ccc(C#Cc2ccc([C@H](O)CO)cc2)cc1 [Example 1, (((S)-2-(4-((4-((S)-1,2-dihydroxyethyl)phenyl)ethynyl)-N-methylbenzamide)-2-methyl-3-(methylamino)-3-oxopropanamide)oxy)phosphonic acid] | 
